From ChEMBL document CHEMBL5724914, “Linking interpersonal differences in gut microbiota composition and drug biotransformation activity” (2024)

Legend:
[1] = human gut metagenome, 24 h, 2 µM
[2] = (§1) The drug is tested on Z-010 corresponding to metagenome with ENA study accession number: PRJEB37062 and ENA sample accession number: ERS12561810 for biotransformation under anaerobic condition. The drug concentrations were measured over 9 timepoints collected between 0 and 24 hours of incubation by liquid-chromatography-coupled mass spectrometry (LC–MS); settings: 2 µM
[3] = as §1, with “Z-012” for “Z-010”, “ERS12561812” for “ERS12561810”; settings: 2 µM
[4] = (§2) The drug is tested on WLS-350 corresponding to human gut metagenome with ENA study accession number: PRJEB37062 and ENA sample accession number: ERS12561789 for biotransformation under anaerobic condition. The drug concentrations were measured over 9 timepoints collected between 0 and 24 hours of incubation by liquid-chromatography-coupled mass spectrometry (LC–MS); settings: 2 µM
[5] = human gut metagenome, 24 h, 2 µM; remark: listed apart in the source
[6] = as §2, with “Z-007” for “WLS-350”, “rat” for “human”, “ERS12561807” for “ERS12561789”; settings: 2 µM
[7] = as §2, with “WLS-038” for “WLS-350”, “ERS12561745” for “ERS12561789”; settings: 2 µM
[8] = as §1, with “Z-027” for “Z-010”, “ERS12561826” for “ERS12561810”; settings: 2 µM
[9] = human gut metagenome, 24 h, 2 µM; remark: listed apart in the source
[10] = human gut metagenome, 24 h, 2 µM; remark: listed apart in the source
[11] = as §2, with “WLS-052” for “WLS-350”, “ERS12561747” for “ERS12561789”; settings: 2 µM
[12] = as §2, with “WLS-077” for “WLS-350”, “ERS12561750” for “ERS12561789”; settings: 2 µM
[13] = as §2, with “Z-030” for “WLS-350”, “mouse” for “human”, “ERS12561829” for “ERS12561789”; settings: 2 µM
[14] = as §1, with “Z-005” for “Z-010”, “ERS12561805” for “ERS12561810”; settings: 2 µM
[15] = human gut metagenome, 24 h, 2 µM; remark: listed apart in the source
[16] = as §2, with “Z-017” for “WLS-350”, “mouse” for “human”, “ERS12561816” for “ERS12561789”; settings: 2 µM
[17] = human gut metagenome, 24 h, 2 µM; remark: listed apart in the source
[18] = as §2, with “WLS-073” for “WLS-350”, “ERS12561749” for “ERS12561789”; settings: 2 µM
[19] = human gut metagenome, 24 h, 2 µM; remark: listed apart in the source
[20] = as §1, with “Z-008” for “Z-010”, “ERS12561808” for “ERS12561810”; settings: 2 µM
Further: call rule not given here.

SMILES | Bacterial Biotransformation [1] | Bacterial Biotransformation [2] | Bacterial Biotransformation [3] | Bacterial Biotransformation [4] | Bacterial Biotransformation [5] | Bacterial Biotransformation [6] | Bacterial Biotransformation [7] | Bacterial Biotransformation [8] | Bacterial Biotransformation [9] | Bacterial Biotransformation [10] | Bacterial Biotransformation [11] | Bacterial Biotransformation [12] | Bacterial Biotransformation [13] | Bacterial Biotransformation [14] | Bacterial Biotransformation [15] | Bacterial Biotransformation [16] | Bacterial Biotransformation [17] | Bacterial Biotransformation [18] | Bacterial Biotransformation [19] | Bacterial Biotransformation [20]
CN1CCC(=C2c3ccccc3CCc3cccnc32)CC1.O=C(O)/C=C\C(=O)O.O=C(O)/C=C\C(=O)O [AZATADINE MALEATE] | Compound NOT metabolized | Compound NOT metabolized | Compound NOT metabolized | Compound NOT metabolized | Compound NOT metabolized | Compound NOT metabolized | Compound NOT metabolized | Compound NOT metabolized | Compound NOT metabolized | Compound NOT metabolized | Compound NOT metabolized | Compound NOT metabolized | Compound NOT metabolized | Compound NOT metabolized | Compound NOT metabolized | Compound NOT metabolized | Compound NOT metabolized | Compound NOT metabolized | Compound metabolized | Compound NOT metabolized
CC(C)NCC(O)COc1ccc(CCOCC2CC2)cc1 (stereo not given) [BETAXOLOL] | Compound NOT metabolized | Compound NOT metabolized | Compound NOT metabolized | Compound NOT metabolized | Compound metabolized | Compound NOT metabolized | Compound NOT metabolized | Compound NOT metabolized | Compound NOT metabolized | Compound NOT metabolized | Compound NOT metabolized | Compound NOT metabolized | Compound NOT metabolized | Compound NOT metabolized | Compound NOT metabolized | Compound NOT metabolized | Compound metabolized | Compound NOT metabolized | Compound metabolized | Compound NOT metabolized
CCCC1O[C@@H]2C[C@H]3[C@@H]4CCC5=CC(=O)C=C[C@]5(C)[C@H]4[C@@H](O)C[C@]3(C)[C@]2(C(=O)CO)O1 (stereo not given in full) [BUDESONIDE] | Compound metabolized | Compound metabolized | Compound metabolized | Compound metabolized | Compound metabolized | Compound NOT metabolized | Compound metabolized | Compound NOT metabolized | Compound metabolized | Compound metabolized | Compound metabolized | Compound metabolized | Compound NOT metabolized | Compound metabolized | Compound NOT metabolized | Compound metabolized | Compound metabolized | Compound NOT metabolized | Compound metabolized | Compound metabolized
CN/C(=N/CCSCc1nc[nH]c1C)NC#N [CIMETIDINE] | Compound metabolized | Compound metabolized | Compound metabolized | Compound NOT metabolized | Compound metabolized | Compound NOT metabolized | Compound NOT metabolized | Compound NOT metabolized | Compound metabolized | Compound metabolized | Compound NOT metabolized | Compound metabolized | Compound NOT metabolized | Compound metabolized | Compound NOT metabolized | Compound NOT metabolized | Compound NOT metabolized | Compound NOT metabolized | Compound metabolized | Compound NOT metabolized

Next, values leading:

Bacterial Biotransformation [1] | Bacterial Biotransformation [2] | Bacterial Biotransformation [3] | Bacterial Biotransformation [4] | Bacterial Biotransformation [5] | Bacterial Biotransformation [6] | Bacterial Biotransformation [7] | Bacterial Biotransformation [8] | Bacterial Biotransformation [9] | Bacterial Biotransformation [10] | Bacterial Biotransformation [11] | Bacterial Biotransformation [12] | Bacterial Biotransformation [13] | Bacterial Biotransformation [14] | Bacterial Biotransformation [15] | Bacterial Biotransformation [16] | Bacterial Biotransformation [17] | Bacterial Biotransformation [18] | Bacterial Biotransformation [19] | Bacterial Biotransformation [20] | SMILES
Compound metabolized | Compound metabolized | Compound NOT metabolized | Compound metabolized | Compound metabolized | Compound NOT metabolized | Compound metabolized | Compound NOT metabolized | Compound metabolized | Compound metabolized | Compound metabolized | Compound NOT metabolized | Compound NOT metabolized | Compound metabolized | Compound NOT metabolized | Compound metabolized | Compound metabolized | Compound NOT metabolized | Compound metabolized | Compound NOT metabolized | CC(=O)OCC(=O)[C@@]1(O)[C@@H](C)C[C@H]2[C@@H]3CCC4=CC(=O)C=C[C@]4(C)[C@@]3(F)[C@@H](O)C[C@@]21C [BETAMETHASONE ACETATE]
Compound metabolized | Compound metabolized | Compound NOT metabolized | Compound metabolized | Compound metabolized | Compound NOT metabolized | Compound metabolized | Compound NOT metabolized | Compound metabolized | Compound metabolized | Compound metabolized | Compound metabolized | Compound NOT metabolized | Compound NOT metabolized | Compound NOT metabolized | Compound NOT metabolized | Compound metabolized | Compound metabolized | Compound metabolized | Compound NOT metabolized | CC(C)(Oc1ccc(CCNC(=O)c2ccc(Cl)cc2)cc1)C(=O)O [BEZAFIBRATE]
Compound NOT metabolized | Compound metabolized | Compound NOT metabolized | Compound NOT metabolized | Compound metabolized | Compound NOT metabolized | Compound metabolized | Compound NOT metabolized | Compound metabolized | Compound metabolized | Compound metabolized | Compound metabolized | Compound NOT metabolized | Compound metabolized | Compound NOT metabolized | Compound NOT metabolized | Compound metabolized | Compound metabolized | Compound metabolized | Compound NOT metabolized | CCN(CC)CCOCCOC(=O)C1(c2ccccc2)CCCC1.O=C(O)CC(O)(CC(=O)O)C(=O)O [CARBETAPENTANE CITRATE]
Compound metabolized | Compound metabolized | Compound metabolized | Compound metabolized | Compound metabolized | Compound NOT metabolized | Compound metabolized | Compound NOT metabolized | Compound metabolized | Compound metabolized | Compound metabolized | Compound metabolized | Compound NOT metabolized | Compound metabolized | Compound metabolized | Compound NOT metabolized | Compound metabolized | Compound metabolized | Compound metabolized | Compound NOT metabolized | O=C(O)COCCN1CCN(C(c2ccccc2)c2ccc(Cl)cc2)CC1 (stereo not given) [CETIRIZINE]
